Measurements taken from US20230339968A1, “KRAS Gl2C INHIBITORS” (Eli Lilly and Company, priority 2019, published 2023).
Read-outs that look alike come from different tables or passages of the source.

Assays:
H358 (lung) = experiment: CellTiterGlo Cell Proliferation Assay (2D), H358; format: cell-based; settings: Homo sapiens, NCI-H358, 96 hours
Procedure: (§1) The purpose of this assay is to evaluate the growth of KRas G12C mutant tumor lines following treatment with a test compound. A panel of tumor cell lines harboring KRas G12C or other KRas mutations are collected (Table 25). All cell lines are from ATCC or other sources indicated.
(§2) Typically cells are cultured in RPMI1640 or Dulbecco's modified Eagle's medium (DMEM, GIBCO) supplemented with 10% FBS (GIBCO, Invitrogen). […] The cells are treated with compound for 96 hours, and then are analyzed for viability using the CellTiterGlo® Luminescent Cell Viability Assay® (Promega #G7572 for 2D) according to manufacturer's instructions and an EnVision™ plate reader. Nonlinear regression and sigmoidal dose-response curves are used to calculate the half maximal inhibitory concentration (IC50) with GraphPad Prism 4® software.

A549 (lung) = experiment: CellTiterGlo Cell Proliferation Assay (2D), A549 (KRas G12S); format: cell-based; settings: Homo sapiens, A549 (lung, KRas G12S), 2D, 96 hours
Procedure: as §1, §2

active KRas = active KRas (Homo sapiens, UniProt P01116, G12C); experiment: In vivo target inhibition, active KRas ELISA of tumor lysates, lung cancer H358 xenograft model; design: from tissue; host or cells: H358 xenograft tumours grown subcutaneously in nude female mice; settings: NCI-H358, mouse, H358 model, single dose 30 mg/kg, read-out: % Inhibition of Active Ras
Procedure: (§3) The purpose of these assays is to evaluate in vivo target inhibition of an orally administered test compound. Human lung cancer H358 cells, or pancreatic cancer MiaPaca-2 cells, are implanted into nude mice xenograft tumor models. H358 or MiaPaca-2 cells (10×106 in a 1:1 Matrigel® mix, 0.2 mL total volume) are implanted by subcutaneous injection in hind leg of nude female mice (Harlan Laboratories). […] Treatment is initiated with oral administration (gavage) of a test compound or vehicle (20% Captisol®, 25 mM phosphate, pH 2.0 in 0.2 mL) when the tumor size reaches approximately 300 mg.
(§4) For in vivo target inhibition and PD analysis, tumors are ground by mortar and pestle on dry ice and tumor fragments are added to 800 μL of lysis buffer containing 1% Triton™ X-100, 25 mM Tris pH7.5, 150 mM sodium chloride, 1 mM EDTA, and 1 mM EGTA with Halt protease and phosphatase inhibitor cocktail (Thermo Scientific, cat. no. 1861281) in lysing matrix D tubes (MP Biomedical®, cat. no. 6913-500) with one additional large bead (MP Biomedical® ¼″ ceramic sphere bead cat. no. 6540-412) per tube. Tumor fragments are homogenized in a Thermo Bio101® fast prep (FP120) at setting 4 for […] while cold for a total of 2 times. Lysates are spun at 14,000 rpm for 10 minutes at 4° C. to clarify. Protein estimation is done on the lysate supernatant using a BioRad Dc® protein assay and lysates are diluted in complete lysis/binding buffer from the Ras GTPase Chemi ELISA Kit® (Active Motif, cat. no. 52097). The active KRas ELISA is performed as follows: glutathione-coated ELISA wells are incubated with diluted RAF1-GST in complete lysis/binding buffer for 1 hour at 4° C. with gentle agitation. Wells are washed 3 times with wash buffer and 100 μg of lysates are added to each well and incubated at ambient temperature for 1 hour with mild agitation. The wells are washed an additional 3 times, then primary antibody, diluted in antibody binding buffer, is added to each well. The plates are incubated for 1 hour. The wells are washed 3 more times before adding HRP-conjugated secondary antibody, diluted in antibody binding buffer, to each well. The plates are incubated at ambient temperature for 1 hour. ELISA wells are washed 4 times, chemiluminescent reagent is added and then luminescence is read. For pERK Meso Scale Discovery ELISA, 25 μg of protein containing 0.1% SDS is used; Meso Scale Discovery Whole Cell Lysate Kit for pERK is provided by Meso Scale Discovery.
(§5) The purpose of this assay is to evaluate the dose dependent in vivo target inhibition and pharmacodynamic effects in a lung cancer model. The test compound is dosed in lung cancer H358 mouse xenograft model at a dose range from 12.5 to 100 mg/kg. The tumor samples are collected 8 hours post a single dose. The tumor lysates are prepared and the inhibition of pERKand active KRas is measured as described above.
(§6) The purpose of this assay is to evaluate the time dependent in vivo target inhibition and pharmacodynamic effects in a lung cancer model. […] After a single dose, the tumor samples are harvested at 2, 4, 8, 12 and 24 hour post doing. The tumor lysates are prepared and the inhibition of pERK and active KRas is measured as described above.

KYSE-410 (esoph) = experiment: CellTiterGlo Cell Proliferation Assay (2D), KYSE-410; format: cell-based; settings: Homo sapiens, 96 hours
Procedure: as §1, §2

SW756 (cervix) = experiment: CellTiterGlo Cell Proliferation Assay (2D), SW756; format: cell-based; settings: Homo sapiens, 96 hours
Procedure: as §1, §2

LU99 (lung) = experiment: CellTiterGlo Cell Proliferation Assay (2D), LU99; format: cell-based; settings: Homo sapiens, Lu-99, 96 hours
Procedure: as §1, §2

UM-UC-3 (bladder) = experiment: CellTiterGlo Cell Proliferation Assay (2D), UM-UC-3; format: cell-based; settings: Homo sapiens, UMUC3, 96 hours
Procedure: as §1, §2

H1373 (lung) = experiment: CellTiterGlo Cell Proliferation Assay (2D), H1373; format: cell-based; settings: Homo sapiens, NCI-H1373, 96 hours
Procedure: as §1, §2

H2122 (lung) = experiment: CellTiterGlo Cell Proliferation Assay (2D), H2122; format: cell-based; settings: Homo sapiens, NCI-H2122, 96 hours
Procedure: as §1, §2

pERK = experiment: In vivo pharmacodynamic effect, pERK Meso Scale Discovery ELISA of tumor lysates, lung cancer H358 xenograft model; design: species or system mouse; settings: H358 model, single dose 30 mg/kg; for inhibition at 30 mg/kg: Mus musculus, read-out: % inhibition of pERK
Procedure: as §3, §4, §5, §6

H23 (lung) = experiment: CellTiterGlo Cell Proliferation Assay (2D), H23; format: cell-based; settings: 96 hours
Procedure: as §1, §2

SW1463 (colon) = experiment: CellTiterGlo Cell Proliferation Assay (2D), SW1463; format: cell-based; settings: Homo sapiens, 96 hours
Procedure: as §1, §2

LXFA-983L (lung) = experiment: CellTiterGlo Cell Proliferation Assay (2D), LXFA-983L; format: cell-based; settings: 96 hours
Procedure: as §1, §2

Chain of active KRas (P01116 1-188 isoform P01116-2 G12C): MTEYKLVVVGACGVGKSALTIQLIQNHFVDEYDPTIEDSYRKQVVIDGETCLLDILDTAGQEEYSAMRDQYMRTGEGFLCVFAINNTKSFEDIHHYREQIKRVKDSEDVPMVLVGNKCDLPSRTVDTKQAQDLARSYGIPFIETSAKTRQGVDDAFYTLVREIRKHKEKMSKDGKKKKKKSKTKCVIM

C=CC(=O)N1CCN2C(=O)c3cc(F)c(-c4ccc(F)c5sc(N)c(C#N)c45)c(Cl)c3OC[C@H]2C1 [Example 36, 4-[(4aR)-7-Chloro-9-fluoro-11-oxo-3-prop-2-enoyl-2,4,4a,5-tetrahydro-1H-pyrazino[2,1-c][1,4]benzoxazepine-8-yl]-2-amino-7-fluoro-benzothiophene-3-carbonitrile]
IC50 (H358 (lung)): 0.008 µM
inhibition at 10 µM (H358 (lung); 10 μM): 89.1%
IC50 (A549 (lung)): 9.5 µM
inhibition at 10 µM (A549 (lung); 10 μM, read-out: % inh. @ 10 μM): 62.1%
inhibition at 30 mg/kg (active KRas; 2 h): 72.6%
inhibition at 30 mg/kg (active KRas; 4 h): 72.4%
inhibition at 30 mg/kg (active KRas; 8 h): 88.5%
inhibition at 30 mg/kg (active KRas; 24 h): 43.2%
IC50 (KYSE-410 (esoph)): > 10 µM
inhibition at 10 µM (KYSE-410 (esoph); 10 μM): 43.1%
IC50 (SW756 (cervix)): 2.52 µM
inhibition at 10 µM (SW756 (cervix); 10 μM): 58.1%
IC50 (LU99 (lung)): 0.349 µM
inhibition at 10 µM (LU99 (lung); 10 μM): 99.1%
IC50 (UM-UC-3 (bladder)): 1.86 µM
inhibition at 10 µM (UM-UC-3 (bladder); 10 μM): 91.6%
IC50 (H1373 (lung)): 5.49 µM
inhibition at 10 µM (H1373 (lung); 10 μM): 82.6%
IC50 (H2122 (lung)): 1.36 µM
inhibition at 10 µM (H2122 (lung); 10 μM): 92.8%
% inhibition of pERK (pERK; 8 h, 30 mg/kg): 86.9%
inhibition at 30 mg/kg (pERK; NCI-H358, 2 h, 2 h): 79.7%
inhibition at 30 mg/kg (pERK; NCI-H358, 4 h, 4 h): 84.2%
inhibition at 30 mg/kg (pERK; NCI-H358, 8 h, 8 h): 82.6%
inhibition at 30 mg/kg (pERK; NCI-H358, 24 h, 24 h): 48.8%
IC50 (H23 (lung)): 0.1 µM
inhibition at 10 µM (H23 (lung); 10 μM): 96.7%
IC50 (SW1463 (colon)): 0.014 µM
inhibition at 10 µM (SW1463 (colon); 10 μM): 82.7%
IC50 (LXFA-983L (lung)): > 10 µM
inhibition at 10 µM (LXFA-983L (lung); 10 μM): 88%
